{"source": "patent US8772348B2", "about": "“Materials and methods for pest control” (priority 2009, dated 2014)", "key": {"Aedes aegypti [1]": {"test_system": "Aedes aegypti", "details": "filter paper discs, after a 24-hour exposure", "protocol": "Briefly, yellow fever mosquito, Ae. aegypti were obtained from strains that have been cultured in the laboratory of the Entomology and Nematology Department, University of Florida.\nThe mortality rate is measured after a 2-hour, 4-hour and 24-hour exposure period. Ataxic mosquitoes are considered dead.\nThe ability of Ae. aegypti to recover from insecticidal exposure is also investigated. After a 2-hour exposure, each set of Ae. aegypti is transferred into a separate jar. The mortality rate is measured at two time intervals: first, immediately at the transfer (2 hours after the initial exposure), and second, 22 hours after the transfer (24 hours after the initial exposure)."}, "Musca domestica [2]": {"test_system": "Musca domestica", "details": "M. domestica; formulation on plywood panels at 1.67 mg cm^−2; mortality 24 h after", "protocol": "Briefly, each fly strain is divided into eight sets: three sets as the experiment, four sets as the positive control, and one set as the negative control. Flies are assayed on unpainted plywood panel boards that have been previously exposed to natural summer weather conditions for at least 10 days. […] The positive control set is treated with permethrin, geranyl acetone, rosalva or citronellol. The negative control set is treated with water. The formulation is applied at a uniform rate of 7.5 ml per 225 cm^2, sufficient to cover the entire panel without dripping. Subsequently, the treated panel boards are dried for about an hour.\nIn each set, 20 adult flies are placed onto the panel boards. Flies are secured with wooden embroidery hoops, covered with a coarse mesh screen cloth previously sprayed with the respective formulation. After 4 hours, flies are transferred into a clean jar. The mortality rate is measured 24 hours after the transfer, and is determined using the same procedures as are illustrated in Example 2.\n(§1) Plywood panels (225 cm^2) were treated with chemicals at a rate of 1.67 mgcm^−2. Panels were treated on day 0 and held until exposure on post-treatment day. Mosquitoes were exposed to chemicals for 2 h, and mortality rate was assessed 24 h after initial exposure. Control contained formulation ingredients without semiochemicals."}, "Musca domestica [3]": {"test_system": "Musca domestica", "details": "formulation on plywood panels, 3.33 mg cm^−2 (footnote 1.67), 2 h exposure, mortality 24 h after", "protocol": "Briefly, after Musca domestica is exposed to formulations at concentration of 3.33 mg cm^−2 for 2 hours, each set is transferred into a separate glass jar, and held for another 24 hours.\nas §1, with “of 1.67 mg cm^−2. Panels were” for “of 1.67 mgcm^−2. Panels were”, “0 and was held until” for “0 and held until”"}, "Aedes aegypti [4]": {"test_system": "Aedes aegypti", "details": "formulation on plywood panels at 1.67 mg cm^−2, 2 h exposure, mortality 24 h after initial exposure", "protocol": "Briefly, after mosquitoes are assayed on unpainted plywood panel boards with formulation at a concentration of 1.67 mg cm^−2 for 2 hours, they are transferred into a separate glass jar, and held for another 24 hours. The mortality rate is measured daily for a continuous 4 days (Day 1 starts at 24 hours after the transfer), as is determined using the same procedures as are illustrated in Example 2.\nas §1, with “of 1.67 mg cm^−2. Panels were” for “of 1.67 mgcm^−2. Panels were”, “0 and was held until” for “0 and held until”"}}, "note": "Like-named read-outs stand apart in the source and are kept apart here.", "data": [{"smiles": "CC1(C)CCCC2=C1CC(C=O)CC2", "note": "(stereo not drawn) [Cyclemone A, 2-naphthaldehyde, 1,2,3,4,5,6,7,8-octahydro-8,8-dimethyl]", "values": [{"measurement": "mortality rate", "setting": "Aedes aegypti [1]", "value": "~100", "unit": "%"}, {"measurement": "% mortality", "setting": "Musca domestica [2]", "value": 48.20, "unit": "b %"}, {"measurement": "% mortality on various days following treatment", "setting": "Musca domestica [3]; day 1", "value": 100.00, "unit": "a %"}, {"measurement": "% mortality on various days following treatment", "setting": "Musca domestica [3]; day 2", "value": 49.25, "unit": "b %"}, {"measurement": "% mortality on various days following treatment", "setting": "Musca domestica [3]; day 3", "value": 48.25, "unit": "b %"}, {"measurement": "% mortality on various days following treatment", "setting": "Musca domestica [3]; day 5", "value": 27.75, "unit": "c %"}, {"measurement": "% mortality on various days following treatment", "setting": "Musca domestica [3]; day 7", "value": 18.75, "unit": "b %"}, {"measurement": "% mortality on various days following treatment", "setting": "Musca domestica [3]; day 14", "value": 9.00, "unit": "b %"}, {"measurement": "% mortality on various days following treatment", "setting": "Aedes aegypti [4]; day 1", "value": 100.00, "unit": "a %"}, {"measurement": "% mortality on various days following treatment", "setting": "Aedes aegypti [4]; day 2", "value": 72.00, "unit": "b %"}, {"measurement": "% mortality on various days following treatment", "setting": "Aedes aegypti [4]; day 3", "value": 28.0, "unit": "b %"}, {"measurement": "% mortality on various days following treatment", "setting": "Aedes aegypti [4]; day 4", "value": 13.0, "unit": "b %"}]}]}
